For orientation: MIC means the lowest concentration that inhibits growth of the organism. Low readings indicate a more susceptible organism, high ones a less susceptible organism.

In DBAASP one finds MIC data, which are given here for 20 molecules.

Common to all, as to test: ≥ marks a high value that may be exact or a test limit, other limits are often not marked, values filed in µg/mL are converted to µM
Assay [1] deals with Escherichia coli ATCC 25922.
Assay [2] relates to Staphylococcus aureus ATCC 25923.
Assay [3] deals with Pseudomonas aeruginosa ATCC 27853.

In brackets after ≈: the same amount, converted by molar mass.

Consider `CC(C)C[C@H](NC(=O)[C@H](CC(N)=O)NC(=O)[C@H](CCCCN)NC(=O)[C@H](CCCN=C(N)N)NC(=O)[C@@H]1CCCN1C(=O)[C@H](C)N)C(=O)N[C@@H](CCCCN)C(=O)N[C@@H](Cc1c[nH]c2ccccc12)C(=O)O` [APRKNLKW], for which the MIC in assay [1] worked out at 31.6 µM (≈ 32 µg/mL). Same read-out and setting: with `CC(C)[C@H](NC(=O)[C@H](CC(N)=O)NC(=O)[C@H](CCCCN)NC(=O)[C@H](CCCN=C(N)N)NC(=O)[C@@H]1CCCN1C(=O)[C@H](C)N)C(=O)N[C@@H](CCCN=C(N)N)C(=O)N[C@@H](Cc1c[nH]c2ccccc12)C(=O)O` [APRKNVRW] the figure was 62.4 µM (≈ 64 µg/mL). In the case of `CC(C)C[C@H](NC(=O)[C@H](C)NC(=O)[C@H](CCCCN)NC(=O)[C@H](C)NC(=O)[C@H](CC(C)C)NC(=O)[C@H](CC(=O)O)NC(=O)[C@@H](N)CCC(=O)O)C(=O)N[C@@H](C)C(=O)N[C@@H](CCCCN)C(=O)N[C@@H](CCCCN)C(=O)O` [EDLAKALAKK], the MIC in assay [2] is 2300 µM (≈ 2500 µg/mL); in assay [1], 4600 µM (≈ 5000 µg/mL). Consider `CSCC[C@H](NC(=O)[C@H](CCCN=C(N)N)NC(=O)[C@H](Cc1c[nH]c2ccccc12)NC(=O)[C@H](CCC(N)=O)NC(=O)[C@H](Cc1c[nH]c2ccccc12)NC(=O)[C@H](CCCN=C(N)N)NC(=O)[C@H](CCCN=C(N)N)NC(=O)[C@H](CS)NC(=O)[C@H](CCCCN)NC(=O)[C@@H](N)Cc1ccccc1)C(=O)N[C@@H](CCCCN)C(=O)O` [FKCRRWQWRMK], for which the MIC in assay [2] and in assay [1] was 30.8 µM (≈ 50 µg/mL) in each case. In the case of `CC[C@H](C)[C@H](NC(=O)CNC(=O)[C@H](CC(N)=O)NC(=O)[C@@H](NC(=O)[C@@H](NC(=O)CNC(=O)[C@@H](NC(=O)[C@H](CCCCN)NC(=O)[C@@H](NC(=O)CNC(=O)[C@H](CCCCN)NC(=O)CNC(=O)[C@@H](NC(=O)[C@@H](NC(=O)[C@H](CCCCN)NC(=O)[C@@H]1CCCN1C(=O)[C@H](Cc1ccccc1)NC(=O)[C@@H](NC(=O)CN)[C@@H](C)CC)[C@@H](C)CC)[C@@H](C)CC)[C@@H](C)CC)[C@@H](C)O)[C@@H](C)CC)C(C)C)C(=O)N[C@@H](CCCCN)C(=O)N[C@@H](CO)C(=O)N[C@@H](CC(C)C)C(=O)N[C@H](C(=O)N[C@@H](CCCCN)C(=O)NCC(=O)N[C@H](C(=O)NCC(=O)N[C@@H](CCSC)C(=O)N[C@@H](CCCCN)C(=O)N[C@H](C(=O)N[C@@H](Cc1ccccc1)C(=O)N[C@@H](CCCCN)C(=O)N[C@@H](C)C(=O)NCC(=O)N[C@@H](CC(C)C)C(=O)N[C@@H](CC(N)=O)C(=O)N[C@@H](CC(N)=O)C(=O)N[C@H](C(=O)NCC(=O)N[C@@H](CC(N)=O)C(=O)N[C@H](C(=O)NCC(=O)N[C@H]1CSSC[C@@H](C(=O)O)NC(=O)[C@H](CCC(=O)O)NC(=O)[C@H](CC(=O)O)NC(=O)[C@H](CCC(=O)O)NC(=O)[C@H](CC(N)=O)NC1=O)[C@@H](C)O)[C@@H](C)CC)C(C)C)C(C)C)C(C)C` [GIFPKIIGKGIKTGIVNGIKSLVKGVGMKVFKAGLNNIGNTGCNEDEC], the MIC in assay [1] was 1 µM (≈ 4.93 µg/mL). Regarding `CC[C@H](C)[C@H](NC(=O)[C@H](CCCCN)NC(=O)[C@H](CC(C)C)NC(=O)[C@H](CC(C)C)NC(=O)[C@@H]1CCCN1C(=O)CNC(=O)[C@H](CC(C)C)NC(=O)[C@H](CCCCN)NC(=O)CN)C(=O)N[C@@H](C)C(=O)N[C@@H](C)C(=O)N[C@@H](CCCCN)C(=O)N[C@H](C(=O)NCC(=O)N[C@@H](CO)C(=O)N[C@@H](CC(N)=O)C(=O)N[C@@H](CC(C)C)C(=O)N[C@@H](CC(C)C)C(N)=O)C(C)C` [GKLGPLLKIAAKVGSNLL], the MIC in assay [1] came out at 12.5 µM (≈ 22.4 µg/mL). For `CC[C@H](C)[C@H](NC(=O)[C@H](CCCN=C(N)N)NC(=O)[C@H](CCCCN)NC(=O)[C@H](CC(C)C)NC(=O)[C@H](CC(C)C)NC(=O)CN)C(=O)N[C@@H](CCCCN)C(=O)N[C@H](C(=O)N[C@@H](CC(C)C)C(N)=O)[C@@H](C)O` [GLLKRIKTL], the MIC in assay [2] and in assay [1] was > 41.3 µM throughout. Consider `CC[C@H](C)[C@H](NC(=O)[C@H](CCCN=C(N)N)NC(=O)[C@H](CCCCN)NC(=O)[C@H](CC(C)C)NC(=O)[C@H](CC(C)C)NC(=O)[C@@H](N)CCCCN)C(=O)N[C@@H](CCCCN)C(=O)N[C@H](C(=O)N[C@@H](CC(C)C)C(=O)N[C@@H](CC(C)C)C(N)=O)[C@@H](C)O` [KLLKRIKTLL], for which the results for the MIC in assay [2] and in assay [1] were > 19.6 µM and 19.6 µM (≈ 24 µg/mL), respectively. For the molecule `CC(C)C[C@H](NC(=O)[C@H](CCCN=C(N)N)NC(=O)[C@@H](N)CCCCN)C(=O)N[C@@H](CCCN=C(N)N)C(=O)N[C@@H](CCCN=C(N)N)C(=O)N[C@H](C(=O)N[C@@H](Cc1c[nH]c2ccccc12)C(=O)N[C@@H](CCCN=C(N)N)C(=O)N[C@@H](CCCN=C(N)N)C(=O)N[C@@H](Cc1c[nH]c2ccccc12)C(=O)N[C@@H](CCCN=C(N)N)C(N)=O)C(C)C` [KRLRRVWRRWR], the minimal inhibitory concentration (MIC) amounted to 5 µM (≈ 8.34 µg/mL) in assay [2], 20 µM (≈ 33.3 µg/mL) in assay [3] and 30 µM (≈ 50 µg/mL) in assay [1]. Molecule `CC[C@H](C)[C@H](NC(=O)[C@H](Cc1c[nH]c2ccccc12)NC(=O)[C@H](CCCCN)NC(=O)[C@H](Cc1c[nH]c2ccccc12)NC(=O)[C@H](Cc1c[nH]c2ccccc12)NC(=O)[C@H](CCCCN)NC(=O)[C@H](CCCCN)NC(=O)[C@H](Cc1c[nH]c2ccccc12)NC(=O)[C@@H](N)CCCCN)C(N)=O` [KWKKWWKWI] came in with an MIC in assay [1] of 5.76 µM (≈ 7.99 µg/mL). That is a single-digit micromolar value. Turning to `CC[C@H](C)[C@H](NC(=O)[C@H](CCCN=C(N)N)NC(=O)[C@H](CCCCN)NC(=O)[C@H](CC(C)C)NC(=O)[C@@H](N)CC(C)C)C(=O)N[C@@H](CCCCN)C(=O)N[C@H](C(=O)N[C@@H](CC(C)C)C(=O)N[C@@H](CC(C)C)C(N)=O)[C@@H](C)O` [LLKRIKTLL], the MIC in assay [2] is > 54.7 µM; in assay [1], 54.7 µM (≈ 59.9 µg/mL). `CC(C)C[C@H](NC(=O)[C@@H](NC(=O)[C@H](CCCCN)NC(=O)[C@H](CCCCN)NC(=O)[C@@H](NC(=O)[C@H](CCCN=C(N)N)NC(=O)[C@H](CCCCN)NC(=O)[C@@H](NC(=O)[C@@H](N)CC(C)C)C(C)C)C(C)C)C(C)C)C(=O)O` [LVKRVKKVL] returned an MIC in assay [3] of 64 µM (≈ 69.3 µg/mL). In other words, the double-digit micromolar range.

With `CC(C)C[C@H](NC(=O)[C@H](C)NC(=O)[C@@H](N)CO)C(=O)N[C@H](C(=O)NCC(=O)N[C@H]1CSSC[C@@H](C(=O)N[C@@H](Cc2ccccc2)C(=O)NCC(=O)N[C@@H](CCCN=C(N)N)C(=O)O)NC(=O)[C@@H]2CCCN2C(=O)[C@H](CCCCN)NC(=O)[C@@H]2CCCN2C(=O)[C@@H]2CCCN2C(=O)[C@H](Cc2ccc(O)cc2)NC(=O)[C@H](CO)NC(=O)[C@H](CCCCN)NC(=O)[C@H]([C@@H](C)O)NC(=O)[C@H](Cc2c[nH]c3ccccc23)NC1=O)C(C)C` [SALVGCWTKSYPPKPCFGR], the MIC in assay [2] worked out at 6 µM (≈ 12.6 µg/mL). This counts as single-digit micromolar. On to `CC[C@H](C)[C@H](NC(=O)CNC(=O)[C@@H](N)CO)C(=O)N[C@@H](CCC(N)=O)C(=O)N1CCC[C@H]1C(=O)N[C@@H](CCC(=O)O)C(=O)N[C@@H](CCC(N)=O)C(=O)N[C@@H](Cc1cnc[nH]1)C(=O)N[C@@H](CO)C(=O)N[C@@H](CO)C(N)=O` [SGIQPEQHSS], for which the MIC in assay [2], in assay [3] and in assay [1] was > 100 µM throughout. With `CSCC[C@H](NC(=O)[C@H](Cc1cnc[nH]1)NC(=O)[C@H](C)NC(=O)[C@H](CCSC)NC(=O)[C@@H](NC(=O)[C@H](CCCCN)NC(=O)[C@@H]1CCCN1C(=O)[C@H](CC(C)C)NC(=O)[C@@H](N)C(C)C)C(C)C)C(=O)N[C@@H](CCCCN)C(=O)O` [VLPKVMAHMK], the MIC in assay [3] stood at 32 µM (≈ 36.9 µg/mL).

Regarding `CC(C)C[C@H](NC(=O)[C@@H](N)C(C)C)C(=O)N[C@H](C(=O)N1CCC[C@H]1C(=O)N[C@@H](CCC(N)=O)C(=O)NCC(=O)N[C@@H](Cc1ccccc1)C(=O)N[C@@H](C)C(=O)N[C@H](C(=O)N[C@H](C(=O)N[C@@H](CCCCN)C(=O)N[C@@H](CCCCN)C(=O)N[C@@H](C)C(=O)N[C@@H](CC(N)=O)C(=O)N[C@@H](Cc1ccccc1)C(=O)N[C@H](C(=O)N[C@@H](C)C(=O)N[C@@H](Cc1ccccc1)C(=O)N[C@@H](Cc1ccc(O)cc1)C(=O)N[C@H](C(=O)O)[C@@H](C)O)C(C)C)C(C)C)C(C)C)C(C)C` [VLVPQGFAVVKKANFVAFYT], the MIC in assay [1] is 233 µM (≈ 512 µg/mL). Consider `CC(C)[C@H](NC(=O)[C@H](Cc1ccc(O)cc1)NC(=O)[C@H](CO)NC(=O)[C@H](CCCCN)NC(=O)[C@@H](N)Cc1c[nH]c2ccccc12)C(=O)N[C@@H](CCCN=C(N)N)C(=O)N[C@@H](CCCN=C(N)N)C(=O)N[C@@H](Cc1c[nH]c2ccccc12)C(=O)N[C@@H](CCCN=C(N)N)C(=O)N[C@@H](CO)C(=O)N[C@@H](CCCN=C(N)N)C(=O)N[C@@H](Cc1ccc(O)cc1)C(N)=O` [WKSYVRRWRSRY], for which the MIC in assay [2] came to 32 µM (≈ 55.7 µg/mL); in assay [3], 100 µM (≈ 174 µg/mL); in assay [1], 16 µM (≈ 27.9 µg/mL). Turning to `CC(C)[C@H](NC(=O)[C@H](Cc1ccc(O)cc1)NC(=O)[C@H](CO)NC(=O)[C@H](CCCCN)NC(=O)[C@@H](N)Cc1c[nH]c2ccccc12)C(=O)N[C@@H](CCCN=C(N)N)C(=O)N[C@@H](CCCN=C(N)N)C(=O)N[C@@H](Cc1c[nH]c2ccccc12)C(=O)N[C@@H](CCCN=C(N)N)C(=O)N[C@@H](CO)C(=O)N[C@@H](CCCN=C(N)N)C(N)=O` [WKSYVRRWRSR], the MIC in assay [2] was 32 µM (≈ 50.5 µg/mL); in assay [3], > 100 µM; in assay [1] it was 16 µM (≈ 25.3 µg/mL).

For the molecule `CC(C)[C@H](NC(=O)[C@H](Cc1ccc(O)cc1)NC(=O)[C@H](CO)NC(=O)[C@H](CCCCN)NC(=O)[C@@H](N)Cc1c[nH]c2ccccc12)C(=O)N[C@@H](CCCN=C(N)N)C(=O)N[C@@H](CCCN=C(N)N)C(=O)N[C@@H](Cc1c[nH]c2ccccc12)C(=O)N[C@@H](CCCN=C(N)N)C(=O)N[C@@H](CO)C(N)=O` [WKSYVRRWRS], the figures for the MIC in assay [2], in assay [3] and in assay [1] were > 100 µM, > 100 µM and 64 µM (≈ 91.1 µg/mL), respectively.

With `CSCC[C@H](NC(=O)[C@H](CCCN=C(N)N)NC(=O)[C@@H](N)Cc1ccc(O)cc1)C(=O)N[C@@H](Cc1c[nH]c2ccccc12)C(=O)N[C@@H](CCCN=C(N)N)C(=O)N[C@@H](Cc1c[nH]c2ccccc12)C(=O)N[C@@H](CCCN=C(N)N)C(=O)N[C@@H](Cc1c[nH]c2ccccc12)C(=O)N[C@@H](CCCN=C(N)N)C(=O)N[C@@H](Cc1c[nH]c2ccccc12)C(=O)N[C@@H](CCCN=C(N)N)C(N)=O` [YRMWRWRWRWR], the minimal inhibitory concentration (MIC) in assay [2] stood at 2.72 µM (≈ 5 µg/mL); in assay [3], 10.9 µM (≈ 20 µg/mL); in assay [1] it was 4.08 µM (≈ 7.5 µg/mL).
